Results: ChEMBL document CHEMBL5126562, “Surprising lipophilicity observations identify unexpected conformational effects” (Bioorg Med Chem Lett, 2022)
In brackets after ≈: the same amount, converted by molar mass.

Experiments:
[1] = Lipophilicity, logD of compound at pH 7.4; assay type: physicochemical; details: buffer
[2] = Solubility of compound at pH 7.4; assay type: physicochemical; details: buffer

Row | Compound | logD [1] | solubility [2] [µM]
1 | O=C1CCCN1c1cnc(NCc2c(F)ccc3c2CCO3)c2cn[nH]c(=O)c12 | 1.8 | 
2 | O=C1CCCN1c1cnc(NCc2c(F)ccc3c2CCO3)n2cnnc12 | 1.3 | 
3 | Cc1nc(Nc2cccc(N3CCCCC3=O)n2)sc1-c1cc2c(c(S(C)(=O)=O)c1)C(=O)N([C@@H](C)C1CC1)C2 | 3.9 | 6.3 (≈ 3.56 µg/mL)
4 | Cc1nc(Nc2cccc(N3CCN(C)C3=O)n2)sc1-c1cc2c(c(S(C)(=O)=O)c1)C(=O)N([C@@H](C)C1CC1)C2 | 3.4 | < 0.045
5 | CN1CCN(c2cnc(NCc3c(F)ccc4c3CCO4)n3cnnc23)C1=O | 1.4 | 641 (≈ 246 µg/mL)
6 | CC(=O)N1CCc2cc(-c3cccc4c3CCCC4)cc(N3CCCCC3=O)c21 | 3.8 | 259 (≈ 101 µg/mL)
7 | N#Cc1cccc2ncn(CC(=O)NCc3ccc(C(F)(F)F)nc3N3CCCC3=O)c12 | 1.8 | > 2400
8 | C[C@]1(CS(=O)(=O)N2CC=C(C#Cc3cccc(N4CCCC4=O)c3)CC2)NC(=O)NC1=O | 1.5 | 94 (≈ 42.9 µg/mL)
9 | O=C1CCCCN1c1cnc(NCc2c(F)ccc3c2CCO3)n2cnnc12 | 1.3 | 351 (≈ 134 µg/mL)
10 | O=C(C1CC1c1ccc(N2CCCC2=O)cc1)N1CCN(C2CCC2)CC1 (stereo unspecified) | 2 | > 2680
11 | O=C1CCCCN1c1cnc(NCc2c(F)ccc3c2CCO3)c2cn[nH]c(=O)c12 | 1.9 | 18 (≈ 7.37 µg/mL)
12 | COc1ccc(N2CCN(C)CC2)c(CN2CCCN(c3ccc(N4CCOCC4)cc3)C2=O)c1 | 1.3 | 404 (≈ 194 µg/mL)
13 | COCC(=O)N1CCC(COc2ccc(N3CCCC3=O)cc2)C1 (stereo unspecified) | 0.2 | 271 (≈ 90.1 µg/mL)
14 | Cc1nc(Nc2cccc(N3CCCCC3=O)n2)sc1-c1cc2c(c(S(=O)(=O)NC3COC3)c1)C(=O)N([C@@H](C)C1CC1)C2 | 3.6 | 1.8 (≈ 1.12 µg/mL)
15 | CN1CCCN(c2cnc(NCc3c(F)ccc4c3CCO4)n3cnnc23)C1=O | 1.2 | 153 (≈ 60.8 µg/mL)
16 | O=C([C@@H]1C[C@H]1c1cccc(N2CCCC2=O)c1)N1CCN(C2CCC2)CC1 | 2 | > 4140
17 | O=C([C@@H]1C[C@H]1c1cccc(N2CCCCC2=O)c1)N1CCN(C2CCC2)CC1 | 1.6 | > 3000

Row | Compound | logD [1] | solubility [2] [µM]
18 | O=C1CCCCN1c1cccc(C(=O)N(c2ncccc2Cl)[C@@H]2CCCNC2)c1 | -0.9 | > 973
19 | Cc1nc(Nc2cccc(N3CCCC3=O)n2)sc1-c1cc2c(c(S(=O)(=O)NC3COC3)c1)C(=O)N([C@@H](C)C(F)(F)F)C2 | > 4 | 0.081 (≈ 0.0516 µg/mL)
20 | COCC(=O)N1CCC(COc2ccc(N3CCCCC3=O)cc2)C1 (stereo unspecified) | -0.1 | > 3970
21 | Cc1nc(Nc2cccc(N3CCOC3=O)n2)sc1-c1cc2c(c(S(=O)(=O)NC3COC3)c1)C(=O)N([C@@H](C)C1CC1)C2 | > 4 | 0.021 (≈ 0.0128 µg/mL)
22 | O=C([C@H]1C[C@@H]1c1cccc(N2CCCCC2=O)c1)N1CCN(C2CCC2)CC1 | 1.7 | 2190 (≈ 837 µg/mL)
23 | O=C1CCCN1c1cccc(C(=O)N(c2ncccc2Cl)[C@@H]2CCCNC2)c1 | -0.5 | 67 (≈ 26.7 µg/mL)
24 | COc1ccc(N2CCN(C)CC2)c(CN2CCN(c3ccc(N4CCOCC4)cc3)C2=O)c1 | 1.8 | 456 (≈ 212 µg/mL)
25 | CS(=O)(=O)c1ccc(CNC(=O)C2CCCN(c3cccc(C(F)(F)F)c3)C2=O)cc1 (stereo unspecified) | 1.5 | 94 (≈ 42.7 µg/mL)
26 | CC(=O)N1CCc2cc(-c3cccc4c3CCCC4)cc(N3CCCC3=O)c21 | 3.5 | 271 (≈ 101 µg/mL)
27 | Cc1nc(Nc2cccc(N3CCCCC3=O)n2)sc1-c1cc2c(c(S(=O)(=O)NC3COC3)c1)C(=O)N([C@@H](C)C(F)(F)F)C2 | 3.8 | 3 (≈ 1.95 µg/mL)
28 | CN1CCN(c2ccc(F)cc2CN2CCN(c3ccc(N4CCOCC4)cc3)C2=O)CC1 | 2.1 | 189 (≈ 85.7 µg/mL)
29 | CN1CCN(c2ccc(F)cc2CN2CCCN(c3ccc(N4CCOCC4)cc3)C2=O)CC1 | 1.6 | 387 (≈ 181 µg/mL)
30 | Cc1nc(Nc2cccc(N3CCCN(C)C3=O)n2)sc1-c1cc2c(c(S(C)(=O)=O)c1)C(=O)N([C@@H](C)C1CC1)C2 | 3.5 | < 0.14
31 | N#Cc1cccc2ncn(CC(=O)NCc3ccc(C(F)(F)F)nc3N3CCCCC3=O)c12 | 1.8 | > 200
32 | C[C@]1(CS(=O)(=O)N2CC=C(C#Cc3cccc(N4CCCCC4=O)c3)CC2)NC(=O)NC1=O | 1 | 89 (≈ 41.9 µg/mL)
33 | CS(=O)(=O)c1ccc(CNC(=O)C2CCN(c3cccc(C(F)(F)F)c3)C2=O)cc1 (stereo unspecified) | 2.1 | 15 (≈ 6.61 µg/mL)
34 | Cc1nc(Nc2cccc(N3CCCC3=O)n2)sc1-c1cc2c(c(S(C)(=O)=O)c1)C(=O)N([C@@H](C)C1CC1)C2 [AZD-8154] | 4.4 | 0.054 (≈ 0.0298 µg/mL)
